Legend:
[1] = tested on: lytic genes; assay: Suppression of lytic induction in KSHV+ PEL cells (RT-PCR and Western blotting); format: cell-based; settings: BC-3 cells and BCBL-1 cells undergoing lytic induction, 48 hours
From the text: Both of the BC-3 cells and the BCBL-1 cells are cell lines of KSHV^+ PEL cells. Regarding the BC-3 cells, it is known that TPA (12-O-tetradecanoylphorbol-13-acetate) and SB (sodium butyrate) cause cytokine stimulation, which results in the lytic induction. Further, regarding the BCBL-1 cells, it is known that VPA (valproic acid) causes cytokine stimulation, which results in the lytic induction.
Such cytokine stimulation was given to the BC-3 cells and the BCBL-1 cells, and the cells were cultured for 24 hours or 48 hours. Then, RNA of the same was collected, and was subjected to RT-PCR.
Effects of the compound A (the compound A produced in Production Example 1, also described as “Cp. A”) were confirmed by using the same BC-3 cells and BCBL-1 cells as those in Reference Example 1.
The compound A was added to the BC-3 cells and the BCBL-1 cells undergoing lytic induction and cultured for 48 hours; then, the cultured cells were analyzed by RT-PCR and Western blotting.

[2] = tested on: KSHV; assay: Suppression of viral replication: KSHV copy number by real-time PCR; format: cell-based; settings: BCBL-1 cells undergoing lytic induction, 96 hours, compound increased to 5 μM and to 10 μM
Protocol: Effects of the compound A on the KSHV copy number were analyzed by real-time PCR.
The compound A was added to the BCBL-1 cells undergoing lytic induction and cultured for 96 hours; then, DNA samples were collected and analyzed by real-time PCR.

[3] = tested on: BCBL-1 cells; assay: Intraperitoneal administration to PEL xenograft mouse models; format: in vivo, mice (NOD/SCID mice); settings: 300 mg/kg bw intraperitoneally three times a week, 45 days
Protocol: BCBL-1 cells were intraperitoneally inoculated into immunodeficient mice (NOD/SCID mice) so that PEL xenograft models were produced. PEL refers to “primary effusion lymphoma”, as described above. The mice were divided into a compound A administered group and a control group. […] To the control group, PBS was administered intraperitoneally three times a week instead of the compound A. Exemplary results thereof are shown in FIG. 5.

[4] = tested on: KSHV; assay: Viruses in ascites and plasma of PEL xenograft mice; format: in vivo, mice (NOD/SCID mice); settings: 300 mg/kg bw intraperitoneally three times a week, 45 days
Protocol: BCBL-1 cells were intraperitoneally inoculated into immunodeficient mice (NOD/SCID mice) so that PEL xenograft models were produced. PEL refers to “primary effusion lymphoma”, as described above.
The mice were divided into a compound A administered group and a control group. […] To the control group, PBS was administered intraperitoneally three times a week instead of the compound A. Exemplary results thereof are shown in FIG. 5.
Viruses in ascites and plasma of the above-described mice were detected.

[5] = tested on: E6 and E7 genes of HPV; settings: known from WO2005/063293, WO2009/020198, Yamamoto et al. 2014; cited from earlier work

Fc1ccc(N2CCCCC2)c(NC(=S)c2ccncc2)c1 [compound A, N-[5-fluoro-2-(1-piperidinyl)phenyl]-4-pyridinethioamide]
expression of the lytic genes at protein level (Western blotting) [1]: suppressed
expression amount of lytic genes (RT-PCR) ([1]; compound increased to 5 μM and to 10 μM): decreased
virus copy number (real-time PCR) [2]: decreased
amount of ascites ([3]; vs control group (PBS)): significantly less
enlarged spleen ([3]; vs control group, data not shown): particularly suppressed
amount of viruses in ascites ([4]; ascites): significantly decrease
amount of viruses in plasma ([4]; plasma): significantly decrease
expression of the E6 and E7 genes of HPV [5]: suppress
p53 gene stabilization [5]: stabilize
